We go through twelve molecules from patent publication US5648359A, “Tumor necrosis factor production inhibitors” (Sumitomo Pharmaceuticals Company, Limited, priority 1993, dated 1997).

As a reminder, the inhibition is the drop in the measured response relative to a control, in per cent.

The test system of experiment [1] is TNF production in mouse peritoneal macrophages. Put plainly: Inhibitory effect on TNF production in mouse peritoneal macrophages (50 μM and 100 μM). In kind it is cell-based, mouse (BALB/c). As to conditions: Peritoneal macrophage, read-out: Inhibition of TNF Production or secretion; for inhibition at 100 µM: 100 μM compound; for inhibition at 50 µM: 50 μM compound. How it is done: (§1) BALB/c mice (5 weeks old, female, Charles River Japan) were intraperitoneally injected with 1 ml of 3% thioglycollate broth. After 4 days, the mice were sacrificed. Peritoneal exudated cells (PECs) were collected from the peritoneal cavity by washing with minimum essential medium (hereinafter abbreviated as MEM, manufactured by Handai Biseibutubyo Kenkyukai, Osaka, Japan) containing 5 U/ml heparin and 1% fetal bovine serum (FBS, manufactured by GIBCO Laboratories Inc.). PECs were washed three times with MEM, suspended with MEM containing 10% FBS. After the viable cells were counted by exclusion of trypan blue dye, the suspension was adjusted at the final concentration of 2×10^6 cells/ml with MEM containing 10% FBS and seeded into a 96-well microplate (Costar, Cambridge, Mass., USA) at 2×10^5 cells/100 μl/well. The PECs were incubated for an hour at 37° C. in a humidified 5% CO2 incubator, and were washed twice with MEM warmed at 37° C. to remove non-adherent cells. Residual adherent cells were used as peritoneal macrophages. After the washing above, 50 μl each/well of MEM containing 10% FBS was added to each well and provided for use in the following experiment.
The powdery compound of the present invention was dissolved in dimethylsulfoxide in a concentration of 30 mM. […] In the peritoneal macrophages obtained above, 50 μl each of the dilution was added to each well to make the total volume 100 μl. Thereafter 100 μl each of lipopolysaccharide (hereinafter abbreviated as LPS, E. coli 0111B4, manufactured by DIFCO, USA) was added to each well in the final concentration of 10 μg/ml. After the cells were incubated at 37° C. for 18 hours in a humidified 5% CO2 incubator, 25 μl of the supernatant in each well was collected.
(§2) The TNF activity in the supernatant collected was determined by bioassay using TNF-sensitive mouse fibroblast cell line L929 cells. That is, 100 μl each of MEM containing 10% FBS was added to each well of a 96-well microplate; using the resulting mixture, 25 μl of the collected supernatant was diluted to 5-fold dilution to final concentrations (concentrations after the following addition of L929 cell suspension) of 10%, 2%, 0.4% and 0.08%.
L929 cells were then suspended (4×10^5 cells/ml) in MEM containing 10% FBS and 1 μg/ml actinomycin D (Sigma Co.) and 100 μl each of the suspension was added to each well of the above microplate at 4×10^4 cells/well and cultured at 37° C. in a humidified 50% CO2. The viable cells were counted by partial modification of the MTT method reported in Monosann et al., T., J. Immunol. Method, 65, 55-63, 1983. The modified MTT method comprises the following steps. One mg/ml of 3-(4,5-dimethylthiazol-2-yl)-2,5-diphenyltetrazolium bromide (hereinafter abbreviated as MTT, manufactured by Sigma Co.) was dissolved in MEM, and 50 μl each of the solution was added to each well of the microplate above. […] After shaking the 96-well microplate for a few minutes, the absorbance in each well was measured with a microplate reader (Corona Co.) at an absorption wavelength of 550 nm. The absorbance correlated to the count of the viable L929 cells and represented the TNF activity in the supernatant. The TNF activity was determined in terms of unit (U)/ml from the calibration curve of absorbance for the TNF activity obtained using mouse recombinant TNF α (TNF-M, manufactured by Genzyme Co.) as a standard. The activity of inhibiting TNF production of each compound, was determined by the following equation. […]

The subject of experiment [2] is TNF production or secretion in mouse peritoneal macrophages. Description: Inhibitory effect on TNF production or secretion in mouse peritoneal macrophages (30 μM). As to conditions: 30 μM compound, LPS 10 μg/ml, 18 hours, TNF by L929 bioassay; for inhibition at 30 µM: Mus musculus. Type of experiment: cell-based, mouse (BALB/c). As for the experimental part: Inhibitory effect on TNF production or secretion in mouse peritoneal macrophages (In case drug concentration is 30 μM)
as §1
The powdery compound of the present invention was dissolved in dimethylsulfoxide in a concentration of 30 mM. The solution was then diluted with MEM containing 10% FBS in the final concentration of 30 μM. In the peritoneal macrophages obtained above, 50 μl each of the dilution was added to each well to make the total volume 100 μl. Thereafter 100 μl each of lipopolysaccharide (hereinafter abbreviated as LPS, E. coli 0111B4, manufactured by DIFCO, USA) was added to each well in the final concentration of 10 μg/ml. After the cells were incubated at 37° C. for 18 hours in a humidified 5% CO2 incubator, 25 μl of the supernatant in each well was collected.
as §2
L929 cells were then suspended (4×10^5 cells/ml) in MEM containing 10% FBS and 1 μg/ml actinomycin D (Sigma Co.) and 100 μl each of the suspension was added to each well of the above microplate at 4×10^4 cells/well and cultured at 37° C. in a humidified 50% CO2. The viable cells were counted by partial modification of the MTT method reported in Monosann et al., T., J. Immunol. Method, 65, 55-63, 1983. The modified MTT method comprises the following steps. One mg/ml of 3-(4,5-dimethylthiazol-2-yl)-2,5-diphenyltetrazolium bromide (hereinafter abbreviated as MTT, manufactured by Sigma Co.) was dissolved in MEM, and 50 μl each of the solution was added to each well of the microplate above. After incubating the microplate for further 6 hours, the supernatant was discarded and 100 μl of 0.004N HCl-isopropyl alcohol and then 10 μl of 0.01% sodium laurylsulfate aqueous solution was added to each well. After shaking the 96-well microplate for a few minutes, the absorbance in each well was measured with a microplate reader (Corona Co.) at an absorption wavelength of 550 nm. The absorbance correlated to the count of the viable L929 cells and represented the TNF activity in the supernatant. The TNF activity was determined in terms of unit (U)/ml from the calibration curve of absorbance for the TNF activity obtained using mouse recombinant TNF α (TNF-M, manufactured by Genzyme Co.) as a standard. The activity of inhibiting TNF production of each compound, was determined by the following equation.
Inhibition of TNF production or secretion (%)=(1-TNF activity in the […]

A further experiment concerns cancer patients. As to conditions: human, in vivo; cited from earlier work.
For another experiment, the system named is HIV-1. The conditions noted are these: cited from earlier work.
A further experiment has as its system TNF. As to conditions: cited from earlier work.
The test system of experiment [3] is experimental allergic encephalomyelitis induced on an animal model. As to conditions: cited from earlier work.
The next experiment has as its system endotoxin-shocked mice. The conditions noted are these: mouse, in vivo; cited from earlier work.

In the case of `CCCCCC(=O)N1C2Cc3cc4c(cc3C1Cc1cc3c(cc12)OCO3)OCO4` [Example 19], the inhibition at 100 µM in experiment [1] stood at 51%. In addition, the inhibition at 30 µM in experiment [2] stood at 16%.

With `CCCN1C2Cc3cc4c(cc3C1Cc1cc3c(cc12)OCO3)OCO4` [Example 29], the inhibition at 100 µM in experiment [1] stood at 81%. In addition, in experiment [2], the inhibition at 30 µM came to 31%.

As to `CCCCN1C2Cc3cc4c(cc3C1Cc1cc3c(cc12)OCO3)OCO4` [Example 30], in experiment [1], the inhibition at 50 µM was determined as 41% and the inhibition at 100 µM amounted to 78%. The inhibition at 30 µM in experiment [2] was -37%. Turning to `NCCCN1C2Cc3cc4c(cc3C1Cc1cc3c(cc12)OCO3)OCO4` [Example 49, 15-(3-aminopropyl)-5,6,12,13-tetrahydrocycloocta[1,2-f:5,6-f']bis[1,S]benzodioxol-5,12-imine], in experiment [1], the inhibition at 50 µM came to 21%. Also, in experiment [2], the inhibition at 30 µM was -4%.

With `NCC(=O)N1C2Cc3cc4c(cc3C1Cc1cc3c(cc12)OCO3)OCO4` [Example 52, 15-glycyl-5,6,12,13-tetrahydrocycloocta[1,2-f:5,6-f']bis[1,3]benzodioxol-5,12-imine], the inhibition at 30 µM in experiment [2] was determined as 20%. With `NCCC(=O)N1C2Cc3cc4c(cc3C1Cc1cc3c(cc12)OCO3)OCO4` [Example 53, 15-(3-aminopropionyl)-5,6,12,13-tetrahydrocycloocta[1,2-f:5,6-f']bis[1,3]benzodioxol-5,12-imine], the inhibition at 30 µM in experiment [2] is -1%. As to `NCCCC(=O)N1C2Cc3cc4c(cc3C1Cc1cc3c(cc12)OCO3)OCO4` [Example 54, 15-(4-aminobutyryl)-5,6,12,13-tetrahydrocycloocta[1,2-f:5,6-f']bis[1,3]benzodioxol-5,12-imine], the inhibition at 30 µM in experiment [2] was 35%. In the case of `CC(=O)CCCCn1c(=O)c2c(ncn2C)n(C)c1=O` [Pentoxifylline], the “sense of well-being / weight loss in cancer patients” value in the experiment with cancer patients is recorded as “activity of improving the sense of well-being or preventing a weight loss in cancer patients”. In addition, the “prevention of HIV-1 replication” value in the experiment on HIV-1 is given as “activity of preventing HIV-1 replication”. Moreover, the TNF inhibitory activity result in the experiment with TNF is “showing an activity of inhibiting TNF”. In addition, in experiment [3], the “prevention of experimental allergic encephalomyelitis” value is “activity of preventing experimental allergic encephalomyelitis induced on an animal model”. Moreover, the “prevention of death in endotoxin-shocked mice” value in the experiment on endotoxin-shocked mice is recorded as “activity of preventing death in endotoxin-shocked mice”. Regarding “isomeric mixture of 16-acetyl-2-aminomethyl-6,7,13,14-tetrahydro-[1,3]benzodioxolo[5,6-f]cycloocta[1,2-g]-1,4-benzodioxan-6,13-imine and 16-acetyl-3-aminomethyl-6,7,13,14-tetrahydro-[1,3]benzodioxolo[5,6-f]cycloocta[1,2-g]-1,4-benzodioxan-6,13-imine [Example 9]”, the “Inhibition of TNF Production or Secretion” value in experiment [2] is given as 69%. In the case of “mixture of 16-acetyl-6,7,13,14-tetrahydro-2-hydroxymethyl[1,3]benzodioxolo[5,6-f]cycloocta[1,2-g]-1,4-benzodioxan-6,13-imine and 16-acetyl-6,7,13,14-tetrahydro-3-hydroxymethyl[1,3]benzodioxolo[5,6-f]cycloocta[1,2-g]-1,4-benzodioxan-6,13-imine [Example 8]”, the “Inhibition of TNF Production or Secretion” value in experiment [2] is listed as 86%.

Regarding “mixture of 17-acetyl-2-ethoxycarbonyl-6,7,14,15-tetrahydrocycloocta-[1,2-g:5,6-g']bis[1,4]-benzodioxan-6,14-imine and 17-acetyl-3-ethoxycarbonyl-6,7,14,15-tetrahydrocycloocta[1,2-g:5,6-g']bis[1,4]benzodioxan-6,14-imine [Example 6]”, the “Inhibition of TNF Production or Secretion” value in experiment [2] was determined as 89%. On to “mixture of 17-acetyl-6,7,14,15-tetrahydro-2-hydroxymethylcycloocta[1,2-g:5,6-g']bis[1,4]benzodioxan-6,14-imine and 17-acetyl-6,7,14,15-tetrahydro-3-hydroxymethylcycloocta[1,2-g: 5,6-g']bis[1,4]benzodioxan-6,14-imine [Example 7]”, for which, in experiment [2], the “Inhibition of TNF Production or Secretion” value came out at 65%.
